System: r(CUG)12-MBNL1 complex
Experiment: Inhibition of the r(CUG)12-MBNL1 complex measured by TR-FRET
Type: biochemical
Conditions: Table M; 80 nM RNA, 60 nM MBNL1-His6

With `CN(C)CCNC(=O)c1ccc(-c2nc3ccc(-c4ccc5nc(-c6ccc(C(=O)N(C)CCOCCOCc7cn(CCCNCC(=O)N8CCC[C@H]8C(=O)N8CCC[C@H]8C(=O)N8CCC[C@H]8C(=O)N8CCC[C@H]8C(=O)N(CCCn8cc(COCCOCCN(C)C(=O)c9ccc(-c%10nc%11ccc(-c%12ccc%13nc(-c%14ccc(C(=O)NCCN(C)C)cc%14)[nH]c%13c%12)cc%11[nH]%10)cc9)nn8)CC(N)=O)nn7)cc6)[nH]c5c4)cc3[nH]2)cc1` [Compound 432] as the molecule, how does the IC50 read?
Its IC50 is 11.6 µM.

How did the IC50 turn out when `CN(C)CCNC(=O)c1ccc(-c2nc3ccc(-c4ccc5nc(-c6ccc(C(=O)N(C)CCOCCOCCOCCOCc7cn(CCCNCC(=O)N8CCC[C@H]8C(=O)N8CCC[C@H]8C(=O)N8CCC[C@H]8C(=O)N8CCC[C@H]8C(=O)N(CCCn8cc(COCCOCCOCCOCCN(C)C(=O)c9ccc(-c%10nc%11ccc(-c%12ccc%13nc(-c%14ccc(C(=O)NCCN(C)C)cc%14)[nH]c%13c%12)cc%11[nH]%10)cc9)nn8)CC(N)=O)nn7)cc6)[nH]c5c4)cc3[nH]2)cc1` [Compound 433] was run?
The IC50 was over 200 µM.

How did the IC50 turn out when `CN(C)CCNC(=O)c1ccc(-c2nc3ccc(-c4ccc5nc(-c6ccc(C(=O)NCc7cn(CCCNCC(=O)N8CCC[C@H]8C(=O)N8CCC[C@H]8C(=O)N8CCC[C@H]8C(=O)N8CCC[C@H]8C(=O)N(CCCn8cc(CNC(=O)c9ccc(-c%10nc%11ccc(-c%12ccc%13nc(-c%14ccc(C(=O)NCCN(C)C)cc%14)[nH]c%13c%12)cc%11[nH]%10)cc9)nn8)CC(N)=O)nn7)cc6)[nH]c5c4)cc3[nH]2)cc1` [Compound 434, (S)-N-(2-amino-2-oxoethyl)-N-(3-(4-((4-(2′-(4-((2-(dimethylamino)ethyl)carbamoyl)phenyl)-3H,3′H-[5,5′-bibenzo[d]imidazol]-2-yl)benzamido)methyl)-1H-1,2,3-triazol-1-yl)propyl)-1-((3-(4-((4-(2′-(4-((2-(dimethylamino)ethyl)carbamoyl)phenyl)-3H,3′H-[5,5′-bibenzo[d]imidazol]-2-yl)benzamido)methyl)-1H-1,2,3-triazol-1-yl)propyl)glycyl-L-prolyl-L-prolyl-L-prolyl)pyrrolidine-2-carboxamide] was run?
Its IC50 is 10.5 µM.

How did the IC50 turn out when `CN(C)CCNC(=O)c1ccc(-c2nc3ccc(-c4ccc5nc(-c6ccc(C(=O)N(C)CCCc7cn(CCCNCC(=O)N8CCC[C@H]8C(=O)N8CCC[C@H]8C(=O)N8CCC[C@H]8C(=O)N8CCC[C@H]8C(=O)N(CCCn8cc(CCCN(C)C(=O)c9ccc(-c%10nc%11ccc(-c%12ccc%13nc(-c%14ccc(C(=O)NCCN(C)C)cc%14)[nH]c%13c%12)cc%11[nH]%10)cc9)nn8)CC(N)=O)nn7)cc6)[nH]c5c4)cc3[nH]2)cc1` [Compound 435] was run?
Its IC50 is 13.3 µM.

`CN(C)CCNC(=O)c1ccc(-c2nc3ccc(-c4ccc5nc(-c6ccc(C(=O)Nc7cccc(-c8cn(CCCNCC(=O)N9CCC[C@H]9C(=O)N9CCC[C@H]9C(=O)N9CCCC9C(=O)N9CCC[C@H]9C(=O)N(CCCn9cc(-c%10cccc(NC(=O)c%11ccc(-c%12nc%13ccc(-c%14ccc%15nc(-c%16ccc(C(=O)NCCN(C)C)cc%16)[nH]c%15c%14)cc%13[nH]%12)cc%11)c%10)nn9)CC(N)=O)nn8)c7)cc6)[nH]c5c4)cc3[nH]2)cc1` (stereo partly shown) [Compound 436] was tested. Which IC50 did it give?
The IC50 was 2.6 µM.

Which IC50 does the source give for `CN(C)CCNC(=O)c1ccc(-c2nc3ccc(-c4ccc5nc(-c6ccc(C(=O)NCCOCCOCc7cn(CCCNCC(=O)N8CCCC8C(=O)N8CCC[C@H]8C(=O)N(CCCn8cc(COCCOCCNC(=O)c9ccc(-c%10nc%11ccc(-c%12ccc%13nc(-c%14ccc(C(=O)NCCN(C)C)cc%14)[nH]c%13c%12)cc%11[nH]%10)cc9)nn8)CC(N)=O)nn7)cc6)[nH]c5c4)cc3[nH]2)cc1` (stereo partly shown) [Compound 437] here?
The IC50 was 7.5 µM.

How did the IC50 turn out when `CN(C)CCNC(=O)c1ccc(-c2nc3ccc(-c4ccc5nc(-c6ccc(C(=O)NCCOCCOCCOCCOCc7cn(CCCNCC(=O)N8CCCC8C(=O)N8CCC[C@H]8C(=O)N(CCCn8cc(COCCOCCOCCOCCNC(=O)c9ccc(-c%10nc%11ccc(-c%12ccc%13nc(-c%14ccc(C(=O)NCCN(C)C)cc%14)[nH]c%13c%12)cc%11[nH]%10)cc9)nn8)CC(N)=O)nn7)cc6)[nH]c5c4)cc3[nH]2)cc1` (stereo partly shown) [Compound 438] was run?
Its IC50 is over 200 µM.

Which IC50 does the source give for `CN(C)CCNC(=O)c1ccc(-c2nc3ccc(-c4ccc5nc(-c6ccc(C(=O)N7CCC(C8CCN(C(=O)c9ccc(-c%10nc%11ccc(-c%12ccc%13nc(-c%14ccc(C(=O)NCCN(C)C)cc%14)[nH]c%13c%12)cc%11[nH]%10)cc9)CC8)CC7)cc6)[nH]c5c4)cc3[nH]2)cc1` [Compound 439] here?
The IC50 was 10.9 µM.

Which IC50 does the source give for `CN(C)CCNC(=O)c1ccc(-c2nc3ccc(-c4ccc5nc(-c6ccc(C(=O)NCC7CCCCN7C(=O)c7ccc(-c8nc9ccc(-c%10ccc%11nc(-c%12ccc(C(=O)NCCN(C)C)cc%12)[nH]c%11c%10)cc9[nH]8)cc7)cc6)[nH]c5c4)cc3[nH]2)cc1` (stereo not shown) [Compound 440] here?
The IC50 was 1.2 µM.

How did the IC50 turn out when `C[C@H](CNC(=O)c1ccc(-c2nc3ccc(-c4ccc5nc(-c6ccc(C(=O)NCCN(C)C)cc6)[nH]c5c4)cc3[nH]2)cc1)NC(=O)c1ccc(-c2nc3ccc(-c4ccc5nc(-c6ccc(C(=O)NCCN(C)C)cc6)[nH]c5c4)cc3[nH]2)cc1` [Compound 441] was run?
Its IC50 is 66 µM.

How did the IC50 turn out when `C[C@@H](CNC(=O)c1ccc(-c2nc3ccc(-c4ccc5nc(-c6ccc(C(=O)NCCN(C)C)cc6)[nH]c5c4)cc3[nH]2)cc1)NC(=O)c1ccc(-c2nc3ccc(-c4ccc5nc(-c6ccc(C(=O)NCCN(C)C)cc6)[nH]c5c4)cc3[nH]2)cc1` [Compound 442] was run?
Its IC50 is 6.7 µM.

`CN(C)CCNC(=O)c1ccc(-c2nc3ccc(-c4ccc5nc(-c6ccc(C(=O)Nc7cccc(-c8cn(CCCNCC(=O)N9CCCC9C(=O)N9CCC[C@H]9C(=O)N(CCCn9cc(-c%10cccc(NC(=O)c%11ccc(-c%12nc%13ccc(-c%14ccc%15nc(-c%16ccc(C(=O)NCCN(C)C)cc%16)[nH]c%15c%14)cc%13[nH]%12)cc%11)c%10)nn9)CC(N)=O)nn8)c7)cc6)[nH]c5c4)cc3[nH]2)cc1` (stereo partly shown) [Compound 446] was tested. Which IC50 did it give?
Its IC50 is 7.1 µM.

`C[C@@H](NC(=O)CN(CCN)C(=O)c1ccc(-c2nc3cc(-c4ccc5[nH]c(-c6ccc(OCCCN(C)C)cc6)nc5c4)ccc3[nH]2)cc1)C(=O)N[C@H](C)C(=O)N[C@H](C)C(=O)N[C@H](C)C(=O)N(CCNC(=O)c1ccc(-c2nc3cc(-c4ccc5[nH]c(-c6ccc(OCCCN(C)C)cc6)nc5c4)ccc3[nH]2)cc1)CC(N)=O` [Compound 447] was tested. Which IC50 did it give?
Its IC50 is 22.6 µM.

Which IC50 does the source give for `C[C@@H](NC(=O)CNCCNC(=O)c1ccc(-c2nc3cc(-c4ccc5[nH]c(-c6ccc(OCCCN(C)C)cc6)nc5c4)ccc3[nH]2)cc1)C(=O)N[C@H](C)C(=O)N[C@H](C)C(=O)N[C@H](C)C(=O)N(CCNC(=O)c1ccc(-c2nc3cc(-c4ccc5[nH]c(-c6ccc(OCCCN(C)C)cc6)nc5c4)ccc3[nH]2)cc1)CC(N)=O` [Compound 448] here?
Its IC50 is 3.5 µM.

For `CN(C)CCNC(=O)c1ccc(-c2nc3ccc(-c4ccc5nc(-c6ccc(C(=O)N(C)CCCN(C)CCCN(C)C(=O)c7ccc(-c8nc9ccc(-c%10ccc%11nc(-c%12ccc(C(=O)NCCN(C)C)cc%12)[nH]c%11c%10)cc9[nH]8)cc7)cc6)[nH]c5c4)cc3[nH]2)cc1` [Compound 449], which IC50 is on record?
The IC50 was 2.5 µM.

How did the IC50 turn out when `CN(C)CCCN(CCCNC(=O)c1ccc(-c2nc3ccc(-c4ccc5nc(-c6ccc(C(=O)NCCN(C)C)cc6)[nH]c5c4)cc3[nH]2)cc1)C(=O)c1ccc(-c2nc3ccc(-c4ccc5nc(-c6ccc(C(=O)NCCN(C)C)cc6)[nH]c5c4)cc3[nH]2)cc1` [Compound 450] was run?
The IC50 was 29.2 µM.

`CN(C)CCNC(=O)c1ccc(-c2nc3ccc(-c4ccc5nc(-c6ccc(C(=O)NCCCN(C)CCCNC(=O)c7ccc(-c8nc9ccc(-c%10ccc%11nc(-c%12ccc(C(=O)NCCN(C)C)cc%12)[nH]c%11c%10)cc9[nH]8)cc7)cc6)[nH]c5c4)cc3[nH]2)cc1` [Compound 451] was tested. Which IC50 did it give?
The IC50 was 14 µM.

How did the IC50 turn out when `CN(C)CCNC(=O)c1ccc(-c2nc3ccc(-c4ccc5nc(-c6ccc(C(=O)N7CCCC8C9CCCN(C(=O)c%10ccc(-c%11nc%12ccc(-c%13ccc%14nc(-c%15ccc(C(=O)NCCN(C)C)cc%15)[nH]c%14c%13)cc%12[nH]%11)cc%10)C9CCC87)cc6)[nH]c5c4)cc3[nH]2)cc1` (stereo not shown) [Compound 452] was run?
Its IC50 is 3.1 µM.

`CN(C)CCNC(=O)c1ccc(-c2nc3ccc(-c4ccc5nc(-c6ccc(C(=O)NC[C@H]7CCCN7C(=O)c7ccc(-c8nc9ccc(-c%10ccc%11nc(-c%12ccc(C(=O)NCCN(C)C)cc%12)[nH]c%11c%10)cc9[nH]8)cc7)cc6)[nH]c5c4)cc3[nH]2)cc1` [Compound 453] was tested. Which IC50 did it give?
The IC50 was 6.2 µM.

`CN(C)CCNC(=O)c1ccc(-c2nc3ccc(-c4ccc5nc(-c6ccc(C(=O)N[C@@H]7CCN(C(=O)c8ccc(-c9nc%10ccc(-c%11ccc%12nc(-c%13ccc(C(=O)NCCN(C)C)cc%13)[nH]c%12c%11)cc%10[nH]9)cc8)C7)cc6)[nH]c5c4)cc3[nH]2)cc1` [Compound 454] was tested. Which IC50 did it give?
The IC50 was 3.4 µM.

With `CN(C)CCNC(=O)c1ccc(-c2nc3ccc(-c4ccc5nc(-c6ccc(C(=O)N[C@H]7CCN(C(=O)c8ccc(-c9nc%10ccc(-c%11ccc%12nc(-c%13ccc(C(=O)NCCN(C)C)cc%13)[nH]c%12c%11)cc%10[nH]9)cc8)C7)cc6)[nH]c5c4)cc3[nH]2)cc1` [Compound 455] as the molecule, how does the IC50 read?
Its IC50 is 3.8 µM.

`CN(C)CCCOc1ccc(-c2nc3cc(-c4ccc5[nH]c(-c6ccc(C(=O)NCCCn7cc(-c8cccc(NC(=O)c9ccc(-c%10nc%11cc(-c%12ccc%13[nH]c(-c%14ccc(C(=O)NCCN(C)C)cc%14)nc%13c%12)ccc%11[nH]%10)cc9)c8)nn7)cc6)nc5c4)ccc3[nH]2)cc1` [Compound 456] was tested. Which IC50 did it give?
The IC50 was 45.1 µM.

`CN(C)CCCOc1ccc(-c2nc3cc(-c4ccc5[nH]c(-c6ccc(C(=O)NCCCn7cc(CCCNC(=O)c8ccc(C9=Nc%10cc(-c%11ccc%12[nH]c(-c%13ccc(C(=O)NCCN(C)C)cc%13)nc%12c%11)ccc%10C9)cc8)nn7)cc6)nc5c4)ccc3[nH]2)cc1` [Compound 457] was tested. Which IC50 did it give?
Its IC50 is over 200 µM.

Which IC50 does the source give for `CC(C(=O)N(C)C(C)C(=O)N(C)C(C)C(=O)N(C)C(C)C(=O)N(CCCn1cc(CCCCN(C)CCOc2ccc(-c3nc4cc(-c5ccc6[nH]c(-c7ccc(OCCN(C)C)cc7)nc6c5)ccc4[nH]3)cc2)nn1)CC(N)=O)N(C)C(=O)CNCCCn1cc(CCCCN(C)CCOc2ccc(-c3nc4cc(-c5ccc6[nH]c(-c7ccc(OCCN(C)C)cc7)nc6c5)ccc4[nH]3)cc2)nn1` (stereo not shown) [compound 164] here?
Its IC50 is 1.91 µM.

System: MBNL1 exon 5 inclusion in DM1 myotubes
Experiment: Myotube splicing rescue assay (MBNL1 exon 5 inclusion)
Type: cell-based, human
Conditions: 10 μM, 48-hour incubation

`CN(CC(=O)NCCN1CCN(CCNC(=O)c2ccc3nc(-c4ccc(-c5nc6ccc(C(=O)NCCN7CCCCC7)cc6[nH]5)cc4)[nH]c3c2)CC1)CC(=O)NCCN1CCN(CCNC(=O)c2ccc3nc(-c4ccc(-c5nc6ccc(C(=O)NCCN7CCCCC7)cc6[nH]5)cc4)[nH]c3c2)CC1` [Compound 405] was tested. Which “MBNL1 % splicing rescue at 10 μM” value did it give?
Its value is −2.5%.

Reference: patent publication US10961202B2, “Bis-benzimidazole compounds and methods of using the same” (THE SCRIPPS RESEARCH INSTITUTE, priority 2017, dated 2021)
